Key:
P2X7 receptor [1] = test: Electron microscopy of mitochondria after ATP; type: cell-based
HIF-1α = HIF-1α staining in human monocytes by flow cytometry; type: cell-based; settings: ATP 1 mM 30 min, washed, cultured 2 h (FIG. 7e)
Description: Human peripheral blood mononuclear cells (PBMCs) were isolated from blood within one hour after extraction using Ficoll histopaque 1077 (Sigma-Aldrich). […] Cells were treated with ATP (Sigma-Aldrich), antimycin A (Sigma-Aldrich) or FCCP (Sigma-Aldrich) in the presence or absence of PDTC (Sigma-Aldrich) or echinomycin (Sigma-Aldrich) in E-total buffer (147 mM NaCl, 10 mM HEPES, 13 mM glucose, 2 mM CaCl2), 1 mM MgCl2, and 2 mM KCl) and then washed and stimulated with E. coli LPS O55:B5 in their respective complete media. […] After LPS treatment, cells were incubated with P2X7 modulating nanobodies, the specific P2X7 receptor antagonist A438079 or AZ11645373 (Tocris), and then subsequently stimulated with ATP or nigericin (Sigma-Aldrich) in E-total buffer. Times and concentrations for the reagents used are specified in the figure legends.
HIF-1α expression was detected in CD14^+ monocytes using Alexa Fluor-647 mouse anti-human HIF-1α (BD Biosciences, Clone 54) at 1:1000 dilution.

Cell death (LDH assay) = type: cell-based
Description: Presence of LDH in cell-free supernatants was measured using the Cytotoxicity Detection kit (Roche) following the manufacturer's instructions.

monocytes = test: Mitochondrial ROS production (MitoSOX) in human monocytes; type: cell-based; settings: healthy donor monocytes, ATP 3 mM 30 min (FIG. 5f)
P2X7 receptor [2] = test: Cecal ligation and puncture (CLP) sepsis model with i.p. ATP before operation; type: in vivo, mouse; settings: wild type mice, ATP pre-treatment (FIG. 6g)
Description: FIG. 6. P2X7 receptor stimulation induces an impairment of the NLRP3 inflammasome in monocytes. (a-b) Percentage of monocytes with ASC-specks (a) and release of […] from PBMCs (b) isolated from healthy donor blood samples treated with ATP (3 mM, 30 min; ATP-pre), then washed and primed with or without LPS (1 μg/ml, 2 h) and then treated for 20 min with ATP (3 mM; ATP-post) or nigericin (10 μM) as indicated. (c) IL-1β release from wild type or P2rx7^−/− BMDMs treated as in a, but with 4 h LPS priming and 30 min of ATP or nigericin. […] (e) Expression of Nrlp3 and Illb genes analyzed by quantitative PCR from wild type or P2rx7^−/− BMDMs treated with ATP (3 mM, 30 min; ATP-pre), then washed and primed with or without LPS (100 ng/ml, 4 h). […]
The University of Murcia Animal Research Ethical Committee approved animal procedures (ref 5/2014) and then the Animal Health Service of the General Directorate of Fishing and Farming of the Council of Murcia (Servicio de Sanidad Animal, Dirección General de Ganaderia y Pesca, Consejeria de Agricultura y Agua Región de Murcia) approved animal procedures with ref A1320140201. […] Buprenorphine (0.3 mg/kg) was administered intraperitoneally at the time of surgery and mice were monitored continuously until recovery from anesthesia. […] Then the number of bacterial colonies was counted and expressed as CFU/ml of serum.

NLRP3 inflammasome = test: IL-1β release from BMDMs pre-treated, washed, LPS-primed and stimulated with nigericin; type: cell-based, mouse; settings: P2X7-receptor-deficient macrophages (FIG. 6c)
Description: FIG. 6. P2X7 receptor stimulation induces an impairment of the NLRP3 inflammasome in monocytes. (a-b) Percentage of monocytes with ASC-specks (a) and release of […] from PBMCs (b) isolated from healthy donor blood samples treated with ATP (3 mM, 30 min; ATP-pre), then washed and primed with or without LPS (1 μg/ml, 2 h) and then treated for 20 min with ATP (3 mM; ATP-post) or nigericin (10 μM) as indicated. (c) IL-1β release from wild type or P2rx7^−/− BMDMs treated as in a, but with 4 h LPS priming and 30 min of ATP or nigericin. (d) IL-1β release from wild type or P2rx7^−/− BMDMs treated for 30 min with antimycin A (5 μM) or FCCP (1 μM) and then washed and primed with LPS (1 μg/ml, 4 h) and then stimulated with nigericin (10 μM, 30 min) as indicated. (e) Expression of Nrlp3 and Illb genes analyzed by quantitative PCR from wild type or P2rx7^−/− BMDMs treated with ATP (3 mM, 30 min; ATP-pre), then washed and primed with or without LPS (100 ng/ml, 4 h). (f) Kaplan-Meier representation of wild type (top) or P2rx7^−/− (bottom) mice survival after sham operation (dotted line), or CLP operation (continuous line); some mice groups were i.p. injected with ATP (0.5 mg/g) 30 min before operation (dashed lines). Wild type CLP n=10, CLP+ATP n=8, sham n=4, sham+ATP n=4; P2rx7^−/− CLP n=4, CLP+ATP n=6, sham n=3. (g) IL-1β from peritoneal lavage (left) or bacterial load in blood (right) from wild type sham, CLP or CLP+ATP mice after 24 h. Each dot represents a single independent experiment (c,d), a sample from an individual healthy donor (a,b,e) or a single mouse (g); average±standard error is represented in panels a-e,g; *p<0.05; **p<0.01; ns, no significant difference (p>0.05); Mann-Whitney test was used for a,b,d,e; Kruskal-Wallis test was used for c; Long-rank test for f.
FIG. 7. Mitochondrial dysfunction mediates P2X7 receptor induced NLRP3 inflammasome impairment. (a) Mitochondrial membrane depolarization in BMDMs treated with ATP (3 mM, 30 min), then washed out and incubated for the indicated times in the absence or presence of LPS (1 μg/ml) as indicated. […] (e) Representative histogram plot of HIF-1α staining (left) or quantification of HIF-1α mean intensity fluorescence increase (ΔMFI, right) in monocytes isolated from healthy donor blood samples and treated or not with ATP (1 mM, 30 min) in the presence or absence of AZ11645373 (10 μM) or PDTC (10 μM), and then washed and cultured for 2 h; non-stained monocytes (light grey, left). […] (g) Expression of HIF1A gene analyzed by quantitative PCR from control surgery group and septic patients PBMCs; septic patients are separated into NLRP3 non-immunocompromised (grey bar) and immunocompromised (black bar). […]

## Nc1ncnc2c1ncn2[C@@H]1O[C@H](COP(=O)(O)OP(=O)(O)OP(=O)(O)O)[C@@H](O)[C@H]1O [ATP, adenosine triphosphate]
P2X7 receptor [1]
  damage to the mitochondria (electron microscopy): no damage to the mitochondria
  mitochondrial swelling (electron microscopy): a swelling of the mitochondria
HIF-1α
  HIF-1α expression by the agent itself: increased
Cell death (LDH assay)
  cell death: did not induce cell death
monocytes
  mitochondrial ROS production: an increase in mitochondrial ROS production
P2X7 receptor [2]; 24 h after CLP
  bacterial load in the blood: increased
P2X7 receptor [2]; peritoneal lavage 24 h after CLP
  release of IL-1β into the mouse peritoneum: decreased
NLRP3 inflammasome
  NLRP3 inflammasome inhibition when ATP applied before LPS priming: did not present NLRP3 inflammasome inhibition

— patent publication US20220334127A1, “IN VITRO METHOD FOR OBTAINING CLINICAL DATA IN PATIENTS SUFFERING FROM AN INFLAMMATORY DISEASE” (FUNDACIÓN PARA LA FORMACIÓN E INVESTIGACIÓN SANITARIAS DE …, priority 2019, published 2022)
